Test results: US11986532B2 (Arvinas Operations, Inc., priority 2021, dated 2024)
Where two headings read alike, the source gives them in different places.

Target: T1, BCL6 (Homo sapiens, UniProt P41182)
T1 construct: endogenous in cells; host or cells: T47D breast cancer epithelial cells
Assay: Immunofluorescence protocol for high content imaging of BCL6 (degradation) in T47D cells, 3 days compound treatment
Assay type: cell-based
Conditions: for DC50: read-out: Mean DC50 (nM)* category; for Dmax: read-out: Mean Dmax (%)** category
Experimental: Immunofluorescence Protocol for High Content Imaging of BCL6
T47D cells were seeded in 100 μl volume of RPMI1640-10% FBS in a 96-well black/clear bottom plates for adherent lines (Corning #3904).
Day 1. T47D breast cancer epithelial cells were seeded at a density so that confluence is ˜70-90% at endpoint. Cells were seeded at 7K/0.1 ml/well the morning prior to the addition of exemplary bifunctional degradation compounds.
Day 2. Prepare an 11 point 3-fold serial dilution of exemplary bifunctional compound in DMSO and aliquot an appropriate volume to cell growth media to generate a 2× final concentration of exemplary bifunctional compound. Add an equal volume (0.1 ml) of 2× exemplary bifunctional compound/media mix to previously plated cells, for a final top concentration in aqueous cell growth media of 0.1 or 1 μM. Incubate for 3 days at 37° C., 5% CO2.
Day 5 Immunofluorescence. Discard cell media. Wash wells with 200 μl of room temperature phosphate-buffered saline (PBS). Prepared 4% paraformaldehyde (PFA) from 16% PFA (Electron Microscopy Sciences #15710) using 1×PBS. Fifty μl of 4% PF was added to each well and incubate for 15 minutes at room temperature to fix the cells. The PFA was aspirated and the cells washed twice with PBS (200 μl)).
Prepared 0.1% Triton X-100 in PBS using 10% triton X-100 stock. The cells were permeabilized by adding 100 ul of the 0.1% Triton X-100 in PBS to each well to permeabilize cells and incubating at room temperature for 15 minutes. Cells were washed twice with PBS.
Prepared 3% BSA/PBS (from Thermofisher #37515 Blocker BSA in TBS, 10%), and 100 ul was added to each well. The cells were incubated for at least 1 hour at room temperature.
Prepared 1% BSA/PBS using Blocker BSA/PBS, and the 3% BSA/PBS removed from the wells.
For no primary antibody controls, 50 μl 1% BSA/PBS was added.
Primary antibody (BCL6 Rb Ab, CST-14895, Cell Signaling) was diluted 1:300 in 1% BSA/PBS using Blocker BSA/PBS.
Fifty μl of primary antibody added to all remaining wells (i.e., all wells other than the primary antibody controls) and the cells were incubated overnight at 4° C. with slow orbital movement.
Day 6. Contents of the wells was removed and the cells washed four times with 200 ul PBS. 1% BSA/PBS was prepared using Blocker BSA in PBS.
Diluted secondary antibody goat anti-Rb IgG Alexa-488 1:1000, and cell mask-Alexa-647 1:3000 in 1% BSA/PBS in the same mix. Add 50 μl to each well and incubate at room temperature for 1 hour in the dark.
Cells were washed three times with 200 ul PBS, and then incubated for 10 minutes with 100 ul Hoechst dye at 1 μg/mL (20 mM stock) to stain cell nuclei. Wells were then washed with 200 μl PBS, and 100 ul of PBS was added to each well and the plate covered plate with a plastic opaque cover. Plates were stored at 4° C. and covered in aluminum foil until imaged.
Plates were equilibrated to room temperature prior to reading. The bottom of the plate was wiped with 70% isopropanol immediately prior to imaging.
10×, 4 fields/well, include Top hat smoothing in the analysis protocol.
16% paraformaldehyde: Electron Microscopy Sciences #15710
Hoechst: Thermofisher #62249
Blocker BSA in PBS, 10%: Thermofisher #37515
Blocker BSA in TBS, 10%: Thermofisher #37520
Goat anti-rabbit or mouse AlexaFluor-488: Thermofisher #A11008
Cell mask deep red AlexaFluor-647: Thermofisher #C10046
Wash buffer, PBS: 20×PBS, Thermofisher

[1] = T47D cells, 3 days compound treatment

Row | DC50 [1] [nM] | Dmax [1] [%] | SMILES | Dmax (T47D) [%] | DC50 [nM]
1 | < 10 | 50 to 70 | CNC(=O)COc1cc2cc(Nc3nc(N4CCC(CN5CC[C@]6(CCN(c7ccc8c(c7)CN([C@H]7CCC(=O)NC7=O)C8=O)C6)C5)CC4)ncc3Cl)ccc2n(C(C)C)c1=O [Compound 1, 2-[(6-{[5-chloro-2-(4-{[(5S)-7-{2-[(3S)-2,6-dioxopiperidin-3-yl]-1-oxo-2,3-dihydro-1H-isoindol-5-yl}-2,7-diazaspiro[4.4]nonan-2-yl]methyl}piperidin-1-yl)pyrimidin-4-yl]amino}-2-oxo-1-(propan-2-yl)-1,2-dihydroquinolin-3-yl)oxy]-N-methylacetamide] | – | –
2 | – | – | CNC(=O)COc1cc2cc(Nc3nc(N4CCC(O[C@H]5C[C@H](N6CCN(c7ccc8c(c7F)C(=O)N(C7CCC(=O)NC7=O)C8=O)CC6)C5)CC4)ncc3Cl)ccc2n(C(C)C)c1=O (stereo partly drawn) [Compound 413, 2-({6-[(5-chloro-2-{4-[(1r,3r)-3-{4-[2-(2,6-dioxopiperidin-3-yl)-4-fluoro-1,3-dioxo-2,3-dihydro-1H-isoindol-5-yl]piperazin-1-yl}cyclobutoxy]piperidin-1-yl}pyrimidin-4-yl)amino]-2-oxo-1-(propan-2-yl)-1,2-dihydroquinolin-3-yl}oxy)-N-methylacetamide] | < 50 | 10 to 50
3 | – | – | CNC(=O)COc1cc2cc(Nc3nc(N4CCC(O[C@H]5C[C@H](N6CCN(c7ccc8c(c7Cl)CN([C@H]7CCC(=O)NC7=O)C8=O)[C@H](C)C6)C5)CC4)ncc3Cl)ccc2n(C(C)C)c1=O [Compound 267, 2-({6-[(5-chloro-2-{4-[(1r,3r)-3-[(3R)-4-{4-chloro-2-[(3S)-2,6-dioxopiperidin-3-yl]-1-oxo-3H-isoindol-5-yl}-3-methylpiperazin-1-yl]cyclobutoxy]piperidin-1-yl}pyrimidin-4-yl)amino]-1-isopropyl-2-oxoquinolin-3-yl}oxy)-N-methylacetamide] | 50 to 70 | < 10
4 | – | – | CNC(=O)COc1cc2cc(Nc3cc(N4CCC(F)(CN5CCC6(CC5)CN(c5ccc7c(c5F)CN(C5CCC(=O)NC5=O)C7=O)C6(C)C)CC4)ncc3Cl)ccc2n(C(C)C)c1=O (stereo not drawn) [Compound 257, 2-{[6-({5-chloro-2-[4-({2-[2-(2,6-dioxopiperidin-3-yl)-4-fluoro-1-oxo-2,3-dihydro-1H-isoindol-5-yl]-1,1-dimethyl-2,7-diazaspiro[3.5]nonan-7-yl}methyl)-4-fluoropiperidin-1-yl]pyridin-4-yl}amino)-2-oxo-1-(propan-2-yl)-1,2-dihydroquinolin-3-yl]oxy}-N-methylacetamide] | 50 to 70 | < 10
5 | < 10 | < 50 | CNC(=O)COc1cc2cc(Nc3nc(N4CCN(CC5CCC6(CC5)CN(c5c(OC)ccc7c5C(=O)N(C5CCC(=O)NC5=O)C7=O)C6)CC4)ncc3Cl)ccc2n(C(C)C)c1=O (stereo not drawn) [Compound 9, 2-{[6-({5-chloro-2-[4-({2-[2-(2,6-dioxopiperidin-3-yl)-5-methoxy-1,3-dioxo-2,3-dihydro-1H-isoindol-4-yl]-2-azaspiro[3.5]nonan-7-yl}methyl)piperazin-1-yl]pyrimidin-4-yl}amino)-2-oxo-1-(propan-2-yl)-1,2-dihydroquinolin-3-yl]oxy}-N-methylacetamide] | – | –
6 | – | – | CNC(=O)COc1cc2cc(Nc3nc(N4CCC(O[C@H]5C[C@H](N6CC=C(c7ccc8c(c7)C(=O)N(C7CCC(=O)NC7=O)C8=O)CC6)C5)CC4)ncc3Cl)ccc2n(C(C)C)c1=O (stereo partly drawn) [Compound 303, 2-({6-[(5-chloro-2-{4-[(1r,3r)-3-{4-[2-(2,6-dioxopiperidin-3-yl)-1,3-dioxo-2,3-dihydro-1H-isoindol-5-yl]-1,2,3,6-tetrahydropyridin-1-yl}cyclobutoxy]piperidin-1-yl}pyrimidin-4-yl)amino]-2-oxo-1-(propan-2-yl)-1,2-dihydroquinolin-3-yl}oxy)-N-methylacetamide] | 50 to 70 | 50 to 100
7 | – | – | CNC(=O)COc1cc2cc(Nc3nc(N4CCC(CN5CCC6(CC5)CCN6c5cccc6c5C(=O)N(C5CCC(=O)NC5=O)C6=O)CC4)ncc3Cl)ccc2n(C(C)C)c1=O (stereo not drawn) [Compound 333, 2-{[6-({5-chloro-2-[4-({1-[2-(2,6-dioxopiperidin-3-yl)-1,3-dioxo-2,3-dihydro-1H-isoindol-4-yl]-1,7-diazaspiro[3.5]nonan-7-yl}methyl)piperidin-1-yl]pyrimidin-4-yl}amino)-2-oxo-1-(propan-2-yl)-1,2-dihydroquinolin-3-yl]oxy}-N-methylacetamide] | ≥ 70 | < 10
8 | < 10 | 50 to 70 | CNC(=O)COc1cc2cc(Nc3nc(N4CCC(CN5CC6(CCN(c7cccc8c7CN(C7CCC(=O)NC7=O)C8=O)CC6(F)F)C5)CC4)ncc3Cl)ccc2n(C(C)C)c1=O (stereo not drawn) [Compound 125, 2-{[6-({5-chloro-2-[4-({7-[2-(2,6-dioxopiperidin-3-yl)-1-oxo-2,3-dihydro-1H-isoindol-4-yl]-5,5-difluoro-2,7-diazaspiro[3.5]nonan-2-yl}methyl)piperidin-1-yl]pyrimidin-4-yl}amino)-2-oxo-1-(propan-2-yl)-1,2-dihydroquinolin-3-yl]oxy}-N-methylacetamide] | – | –
9 | – | – | CNC(=O)COc1cc2cc(Nc3nc(N4CCC(O[C@H]5C[C@H](N6C[C@@H](C)N(c7ccc8c(c7)C(=O)N(C7CCC(=O)NC7=O)C8=O)[C@H](C)C6)C5)CC4)ncc3Cl)ccc2n(C(C)C)c1=O (stereo partly drawn) [Compound 245, 2-({6-[(5-chloro-2-{4-[(1r,3r)-3-[(3R,5R)-4-[2-(2,6-dioxopiperidin-3-yl)-1,3-dioxo-2,3-dihydro-1H-isoindol-5-yl]-3,5-dimethylpiperazin-1-yl]cyclobutoxy]piperidin-1-yl}pyrimidin-4-yl)amino]-2-oxo-1-(propan-2-yl)-1,2-dihydroquinolin-3-yl}oxy)-N-methylacetamide] | ≥ 70 | 10 to 50
10 | < 10 | 50 to 70 | CNC(=O)COc1cc2cc(Nc3nc(N4CCN(CC5(F)CCN(c6ccc7c(c6)CN(C6CCC(=O)NC6=O)C7=O)CC5)CC4)ncc3Cl)ccc2n(C(C)C)c1=O (stereo not drawn) [Compound 113, 2-{[6-({5-chloro-2-[4-({1-[2-(2,6-dioxopiperidin-3-yl)-1-oxo-3H-isoindol-5-yl]-4-fluoropiperidin-4-yl}methyl)piperazin-1-yl]pyrimidin-4-yl}amino)-1-isopropyl-2-oxoquinolin-3-yl]oxy}-N-methylacetamide] | – | –
11 | < 10 | 50 to 70 | CNC(=O)COc1cc2cc(Nc3nc(N4CCC(CN5CCC6(CCN(c7cc(F)cc8c7C(=O)N(C7CCC(=O)NC7=O)C8=O)C6)C5)CC4)ncc3Cl)ccc2n(C(C)C)c1=O (stereo not drawn) [Compound 138, 2-{[6-({5-chloro-2-[4-({7-[2-(2,6-dioxopiperidin-3-yl)-6-fluoro-1,3-dioxo-2,3-dihydro-1H-isoindol-4-yl]-2,7-diazaspiro[4.4]nonan-2-yl}methyl)piperidin-1-yl]pyrimidin-4-yl}amino)-2-oxo-1-(propan-2-yl)-1,2-dihydroquinolin-3-yl]oxy}-N-methylacetamide] | – | –

Row | SMILES | DC50 [1] [nM] | Dmax [1] [%] | Dmax (T47D) [%] | DC50 [nM]
12 | CNC(=O)COc1cc2cc(Nc3nc(N4CCC(O[C@H]5C[C@H](N6CCN(c7ccc8c(c7Cl)CN(C7CCC(=O)NC7=O)C8=O)CC6)C5)CC4)ncc3Cl)ccc2n(C(C)C)c1=O (stereo partly drawn) [Compound 181, 2-({6-[(5-chloro-2-{4-[(1r,3r)-3-{4-[4-chloro-2-(2,6-dioxopiperidin-3-yl)-1-oxo-2,3-dihydro-1H-isoindol-5-yl]piperazin-1-yl}cyclobutoxy]piperidin-1-yl}pyrimidin-4-yl)amino]-2-oxo-1-(propan-2-yl)-1,2-dihydroquinolin-3-yl}oxy)-N-methylacetamide] | < 10 | ≥ 70 | – | –
